Experimental data as given in ChEMBL document CHEMBL1141107, “A novel series of non-carboxylic acid, non-hydantoin inhibitors of aldose reductase with potent oral activity in diabetic rat models: 6-(5-chloro-3-methylbenzofuran-2-sulfonyl)-2H-pyridazin-3-one and congeners” (J Med Chem, 2005).
Blank lines part the entries; values can stand above or below the molecule they belong to.

Columns and labels:
Rattus norvegicus [1] = species: Rattus norvegicus; experiment: Inhibition of sorbitol accumulation in diabetic rat by acute test; format: functional
Rattus norvegicus [2] = species: Rattus norvegicus; experiment: Inhibition of sorbitol accumulation in diabetic rat by chronic test; format: functional
Rattus norvegicus [3] = experiment: Inhibition of sorbitol accumulation in diabetic rat by acute test dosed at 30 mg/kg; format: functional
[4] = biological target: Aldo-keto reductase family 1 member B1 (Homo sapiens, UniProt P15121); experiment: In vitro inhibitroy concentration against Aldose reductase incubated at 24 degree C for 15 minutes in pH 7.0
Rattus norvegicus [5] = experiment: Inhibition of sorbitol accumulation in diabetic rat by chronic test does at 20 mg/kg; format: functional
Rattus norvegicus [6] = experiment: Inhibition of fructose accumulation in diabetic rat after oral gavage administration incubated at RT for 60 minutes in pH 4.5 by chronic test 10 mg/kg; details: 1 h
Rattus norvegicus [7] = experiment: Inhibition of fructose accumulation in diabetic rat after oral gavage administration incubated at RT for 60 minutes in pH 4.5 by chronic test 30 mg/kg; details: 1 h
Rattus norvegicus [8] = experiment: Dose required for fructose accumulation in diabetic rat after oral gavage administration incubated at RT for 60 minutes in pH 4.5 by acute test; format: functional
Rattus norvegicus [9] = experiment: Inhibition of sorbitol accumulation in diabetic rat by acute test dosed at 1 mg/kg; format: functional
Rattus norvegicus [10] = experiment: Inhibition of sorbitol accumulation in diabetic rat by chronic test dosed at 10 mg/kg; format: functional
Rattus norvegicus [11] = experiment: Inhibition of fructose accumulation in diabetic rat after oral gavage administration incubated at RT for 60 minutes in pH 4.5 by acute test dosed at 10 mg/kg; format: functional; details: 1 h
Rattus norvegicus [12] = experiment: Inhibition of sorbitol accumulation in diabetic rat by acute test dosed at 3 mg/kg; format: functional
Rattus norvegicus [13] = experiment: Inhibition of fructose accumulation in diabetic rat after oral gavage administration, pH 4.5 by chronic test dosed at 3 mg/kg; format: functional
Rattus norvegicus [14] = experiment: Inhibition of fructose accumulation in diabetic rat after oral gavage administration, pH 4.5 by chronic test dosed at 10 mg/kg; format: functional
Rattus norvegicus [15] = species: Rattus norvegicus; experiment: Dose required for inhibition of sorbitol accumulation in diabetic rat by acute test; format: functional
Rattus norvegicus [16] = experiment: Inhibition of fructose accumulation in diabetic rat after oral gavage administration, pH 4.5 by chronic test dosed at 1 mg/kg; format: functional
Rattus norvegicus [17] = experiment: Inhibition of sorbitol accumulation in diabetic rat by acute test dosed at 10 mg/kg; format: functional
Rattus norvegicus [18] = experiment: Inhibition of fructose accumulation in diabetic rat after oral gavage administration incubated at RT for 60 minutes in pH 4.5 by acute test dosed at 1 mg/kg; format: functional; details: 1 h
Rattus norvegicus [19] = experiment: Inhibition of fructose accumulation in diabetic rat after oral gavage administration incubated at RT for 60 minutes in pH 4.5 by acute test dosed at 3 mg/kg; format: functional; details: 1 h
Rattus norvegicus [20] = experiment: Inhibition of sorbitol accumulation in diabetic rat by chronic test dosed at 3 mg/kg; format: functional
Rattus norvegicus [21] = species: Rattus norvegicus; experiment: Dose required for sorbitol accumulation in diabetic rat by chronic test; format: functional
Rattus norvegicus [22] = experiment: Inhibition of sorbitol accumulation in diabetic rat by chronic test dosed at 1 mg/kg; format: functional
Rattus norvegicus [23] = experiment: Inhibition of fructose accumulation in diabetic rat after oral gavage administration incubated at RT for 60 minutes in pH 4.5 by acute test dosed at 25 mg/kg; format: functional; details: 1 h
Rattus norvegicus [24] = experiment: Dose required for fructose accumulation in diabetic rat after oral gavage administration incubated at RT for 60 minutes in pH 4.5 by acute; format: functional
Rattus norvegicus [25] = experiment: Inhibition of fructose accumulation in diabetic rat after oral gavage administration incubated at RT for 60 minutes in pH 4.5 by acute test dosed at 50 mg/kg; format: functional; details: 1 h
Rattus norvegicus [26] = experiment: Inhibition of sorbitol accumulation in diabetic rat by acute test dosed at 50 mg/kg; format: functional
Rattus norvegicus [27] = experiment: Inhibition of sorbitol accumulation in diabetic rat by acute test dosed at 25 mg/kg; format: functional
Rattus norvegicus [28] = species: Rattus norvegicus; experiment: Dose required for sorbitol accumulation in diabetic rat by chronic test
Rattus norvegicus [29] = experiment: Dose required for fructose accumulation in diabetic rat after oral gavage administration, pH 4.5 by chronic test; format: functional
Rattus norvegicus [30] = experiment: Dose required for fructose accumulation in diabetic rat after oral gavage administration incubated at RT for 60 minutes in pH 4.5 by acute test; details: 1 h
Rattus norvegicus [31] = experiment: Inhibition of fructose accumulation in diabetic rat after oral gavage administration incubated at RT for 60 minutes in pH 4.5 by acute test; dosed at 10 mg/kg; format: functional; details: 1 h
Rattus norvegicus [32] = experiment: Inhibition of sorbitol accumulation in diabetic rat by acute test; dosed at 10 mg/kg; format: functional
Rattus norvegicus [33] = experiment: Inhibition of fructose accumulation in diabetic rat after oral gavage administration incubated at RT for 60 minutes in pH 4.5 by acute test; dosed at 20 mg/kg; format: functional; details: 1 h
Rattus norvegicus [34] = experiment: Inhibition of sorbitol accumulation in diabetic rat by acute test; dosed at 20 mg/kg; format: functional
Rattus norvegicus [35] = experiment: Inhibition of sorbitol accumulation in diabetic rat by acute test dosed at 60 mg/kg; format: functional
Rattus norvegicus [36] = experiment: Inhibition of fructose accumulation in diabetic rat after oral gavage administration, pH 4.5 by chronic test dosed at 5 mg/kg; format: functional
Rattus norvegicus [37] = experiment: Inhibition of sorbitol accumulation in diabetic rat by acute test dosed at 5 mg/kg; format: functional
Rattus norvegicus [38] = experiment: Inhibition of sorbitol accumulation in diabetic rat by acute test dosed at 20 mg/kg; format: functional
Rattus norvegicus [39] = experiment: Inhibition of fructose accumulation in diabetic rat after oral gavage administration incubated at RT for 60 minutes in pH 4.5 by acute test dosed at 5 mg/kg; format: functional; details: 1 h
Rattus norvegicus [40] = experiment: Inhibition of sorbitol accumulation in diabetic rat by chronic test dosed at 20 mg/kg; format: functional
Rattus norvegicus [41] = experiment: Inhibition of fructose accumulation in diabetic rat after oral gavage administration incubated at RT for 60 minutes in pH 4.5 by acute test dosed at 20 mg/kg; format: functional; details: 1 h
Rattus norvegicus [42] = experiment: Inhibition of fructose accumulation in diabetic rat after oral gavage administration, pH 4.5 by chronic test dosed at 20 mg/kg; format: functional
Rattus norvegicus [43] = experiment: Inhibition of sorbitol accumulation in diabetic rat by chronic test dosed at 5 mg/kg; format: functional
[44] = Maximum plasma concentration in rat was determined; format: ADME, organism-based

Structure (SMILES): O=S(=O)(c1ccccc1)c1ccc(S(=O)(=O)c2ccccc2)nn1
- Inhibition (Rattus norvegicus [1]): 58%
- Inhibition (Rattus norvegicus [2]): 50%

Structure (SMILES): O=c1ccc(S(=O)(=O)c2c(Cl)cccc2Cl)n[nH]1
- inhibition in vivo at 30 mg/kg (Rattus norvegicus [3]): 81%
- IC50 [4]: 50 nM
- inhibition in vivo at 20 mg/kg (Rattus norvegicus [5]): 75%

Structure (SMILES): O=S(=O)(c1ccccc1)c1ccc(O)nn1
- inhibition in vivo at 25 mg/kg (Rattus norvegicus [23]): 49%
- ED50 (Rattus norvegicus [24]): 25 mg/kg
- inhibition in vivo at 10 mg/kg (Rattus norvegicus [11]): 14%
- ED50 (Rattus norvegicus [15]): 15 mg/kg
- inhibition in vivo at 50 mg/kg (Rattus norvegicus [25]): 74%
- inhibition in vivo at 50 mg/kg (Rattus norvegicus [26]): 95%
- inhibition in vivo at 10 mg/kg (Rattus norvegicus [17]): 40%
- inhibition in vivo at 25 mg/kg (Rattus norvegicus [27]): 73%

Structure (SMILES): O=c1ccc(S(=O)(=O)c2cc(Cl)ccc2Cl)n[nH]1
- IC50 [4]: 73 nM
- inhibition in vivo at 10 mg/kg (Rattus norvegicus [31]): 36%
- inhibition in vivo at 10 mg/kg (Rattus norvegicus [32]): 65%
- inhibition in vivo at 20 mg/kg (Rattus norvegicus [33]): 67%
- inhibition in vivo at 20 mg/kg (Rattus norvegicus [34]): 79%

Structure (SMILES): O=c1ccc(S(=O)(=O)Cc2ccccc2)n[nH]1
- IC50 [4]: 600 nM
- inhibition in vivo at 60 mg/kg (Rattus norvegicus [35]): 73%

Structure (SMILES): O=S(=O)(c1cc(Cl)cc(Cl)c1)c1ccc(O)nn1
- inhibition in vivo at 5 mg/kg (Rattus norvegicus [36]): 30%
- inhibition in vivo at 5 mg/kg (Rattus norvegicus [37]): 68%
- inhibition in vivo at 20 mg/kg (Rattus norvegicus [38]): 91%
- inhibition in vivo at 5 mg/kg (Rattus norvegicus [39]): 32%
- inhibition in vivo at 20 mg/kg (Rattus norvegicus [40]): 73%
- inhibition in vivo at 20 mg/kg (Rattus norvegicus [41]): 49%
- inhibition in vivo at 20 mg/kg (Rattus norvegicus [42]): 38%
- inhibition in vivo at 5 mg/kg (Rattus norvegicus [43]): 63%

Further lines, with some results ahead:

- IC50 [4]: 390 nM
Structure (SMILES): O=c1ccc(S(=O)(=O)c2cccc(F)c2F)n[nH]1
- inhibition in vivo at 10 mg/kg (Rattus norvegicus [6]): 50%
- inhibition in vivo at 30 mg/kg (Rattus norvegicus [7]): 81%

- IC50 [4]: 3 nM
Structure (SMILES): Cc1c(S(=O)(=O)c2ccc(O)nn2)oc2ccc(F)cc12
- ED50 (Rattus norvegicus [8]): 5.8 mg/kg
- inhibition in vivo at 1 mg/kg (Rattus norvegicus [9]): 47%
- inhibition in vivo at 10 mg/kg (Rattus norvegicus [10]): 100%
- inhibition in vivo at 10 mg/kg (Rattus norvegicus [11]): 62%
- inhibition in vivo at 3 mg/kg (Rattus norvegicus [12]): 66%
- inhibition in vivo at 3 mg/kg (Rattus norvegicus [13]): 64%
- inhibition in vivo at 10 mg/kg (Rattus norvegicus [14]): 90%
- ED50 (Rattus norvegicus [15]): 1.2 mg/kg
- inhibition in vivo at 1 mg/kg (Rattus norvegicus [16]): 17%
- inhibition in vivo at 10 mg/kg (Rattus norvegicus [17]): 84%
- inhibition in vivo at 1 mg/kg (Rattus norvegicus [18]): 11%
- inhibition in vivo at 3 mg/kg (Rattus norvegicus [19]): 42%
- inhibition in vivo at 3 mg/kg (Rattus norvegicus [20]): 86%
- ED50 (Rattus norvegicus [21]): 1 mg/kg
- inhibition in vivo at 1 mg/kg (Rattus norvegicus [22]): 52%

- IC50 [4]: 5 nM
Structure (SMILES): Cc1c(S(=O)(=O)c2ccc(O)nn2)oc2ccc(C(F)(F)F)cc12
- ED50 (Rattus norvegicus [28]): < 1 mg/kg
- inhibition in vivo at 1 mg/kg (Rattus norvegicus [9]): 43%
- inhibition in vivo at 10 mg/kg (Rattus norvegicus [10]): 102%
- ED50 (Rattus norvegicus [29]): 1 mg/kg
- inhibition in vivo at 3 mg/kg (Rattus norvegicus [12]): 91%
- inhibition in vivo at 3 mg/kg (Rattus norvegicus [13]): 81%
- inhibition in vivo at 10 mg/kg (Rattus norvegicus [14]): 100%
- ED50 (Rattus norvegicus [15]): 1.3 mg/kg
- inhibition in vivo at 1 mg/kg (Rattus norvegicus [16]): 54%
- inhibition in vivo at 10 mg/kg (Rattus norvegicus [17]): 101%
- ED50 (Rattus norvegicus [30]): 2 mg/kg
- inhibition in vivo at 3 mg/kg (Rattus norvegicus [19]): 79%
- inhibition in vivo at 3 mg/kg (Rattus norvegicus [20]): 95%
- inhibition in vivo at 1 mg/kg (Rattus norvegicus [22]): 75%

- Cmax [44]: 9000 ng/mL
- IC50 [4]: 1 nM
Structure (SMILES): Cc1c(S(=O)(=O)c2ccc(=O)[nH]n2)oc2ccc(Cl)cc12
- ED50 (Rattus norvegicus [8]): 0.8 mg/kg
- ED50 (Rattus norvegicus [15]): 0.2 mg/kg
